Test results published in PubChem BioAssay AID248 (DTP/NCI, 2004).
Where “and” joins values, the source holds several entries; their conditions need not be identical. Equal entries are not always repeated. Inconclusive results and toxic doses are left out. No stated cut-off is given here; in the data, active means T/C of 150% or more; inactive means T/C below 125%.

System: L1210 leukemia ip in BDF1 mice, survival T/C
Assay: NCI In Vivo Anticancer Drug Screen. Data for tumor model L1210 Leukemia (intraperitoneal) in B6D2F1 (BDF1) mice
Details: endpoint: mean survival time, higher = longer survival
Procedure, shortened: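 Survival endpoint. Drug-treated group vs vehicle group, expressed as T divided by C. Tumor passaged by transplantation.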

[1] = dose: 100.0 mg/kg/injection, schedule: Q04DX003 (ip), vehicle: Klucel (hydroxypropylcellulose) (HPC)
[2] = dose: 200.0 mg/kg/injection, schedule: Q04DX003 (ip), vehicle: Klucel (hydroxypropylcellulose) (HPC)
[3] = dose: 12.5 mg/kg/injection, schedule: Q04DX003 (ip), vehicle: saline with Tween-80

Measured: T/C

O=C(O)c1ccccc1N=Cc1ccc[nH]1
inactive: dose: 100.0 mg/kg/injection, schedule: Q04DX002 (ip), vehicle: Klucel (hydroxypropylcellulose) (HPC) 115 % of control | dose: 200.0 mg/kg/injection, schedule: Q04DX002 (ip), vehicle: Klucel (hydroxypropylcellulose) (HPC) 100 % of control | dose: 400.0 mg/kg/injection, schedule: Q04DX002 (ip), vehicle: Klucel (hydroxypropylcellulose) (HPC) 96 % of control

O=[N+]([O-])c1ccc(S(=O)(=O)N2CCN(S(=O)(=O)c3ccc([N+](=O)[O-])cc3)C2)cc1
inactive: dose: 50.0 mg/kg/injection, schedule: Q01DX009 (ip), vehicle: Klucel (hydroxypropylcellulose) (HPC) 93 % of control | dose: 100.0 mg/kg/injection, schedule: Q01DX009 (ip), vehicle: Klucel (hydroxypropylcellulose) (HPC) 87 % of control and 91 % of control | [1] 91 % of control | dose: 200.0 mg/kg/injection, schedule: Q01DX009 (ip), vehicle: Klucel (hydroxypropylcellulose) (HPC) 93 % of control | [2] 94 % of control | dose: 400.0 mg/kg/injection, schedule: Q01DX009 (ip), vehicle: Klucel (hydroxypropylcellulose) (HPC) 101 % of control | dose: 400.0 mg/kg/injection, schedule: Q04DX003 (ip), vehicle: Klucel (hydroxypropylcellulose) (HPC) 98 % of control

CC(C)N(C(=S)SC(=S)N(C(C)C)C(C)C)C(C)C
inactive: dose: 50.0 mg/kg/injection, schedule: Q04DX003 (ip), vehicle: Klucel (hydroxypropylcellulose) (HPC) 93 % of control | [1] 90 % of control | [2] 96 % of control

CCCCCCCCCCCCCCCC[N+](C)(C)CCCCCCCCCCCCCCCC
inactive: dose: 3.12 mg/kg/injection, schedule: Q03DX003 (ip), vehicle: saline with Tween-80 103 % of control | dose: 6.25 mg/kg/injection, schedule: Q03DX003 (ip), vehicle: saline with Tween-80 100 % of control | dose: 12.5 mg/kg/injection, schedule: Q03DX003 (ip), vehicle: saline with Tween-80 103 % of control | [3] 93 % of control

CCOC(=O)c1ccc(OC(=O)Nc2ccc(F)cc2)cc1
inactive: dose: 50.0 mg/kg/injection, schedule: Q01DX001 (ip), vehicle: carboxymethylcellulose (CMC) 106 % of control | dose: 50.0 mg/kg/injection, schedule: Q01DX009 (ip), vehicle: carboxymethylcellulose (CMC) 96 % of control and 105 % of control | dose: 50.0 mg/kg/injection, schedule: Q04DX002 (ip), vehicle: carboxymethylcellulose (CMC) 95 % of control and 103 % of control | dose: 100.0 mg/kg/injection, schedule: Q01DX001 (ip), vehicle: carboxymethylcellulose (CMC) 104 % of control | dose: 100.0 mg/kg/injection, schedule: Q01DX009 (ip), vehicle: carboxymethylcellulose (CMC) 95 % of control and 99 % of control | dose: 100.0 mg/kg/injection, schedule: Q04DX002 (ip), vehicle: carboxymethylcellulose (CMC) 95 % of control and 107 % of control | dose: 200.0 mg/kg/injection, schedule: Q01DX001 (ip), vehicle: carboxymethylcellulose (CMC) 101 % of control | dose: 200.0 mg/kg/injection, schedule: Q01DX009 (ip), vehicle: carboxymethylcellulose (CMC) 94 % of control | dose: 200.0 mg/kg/injection, schedule: Q04DX002 (ip), vehicle: carboxymethylcellulose (CMC) 103 % of control and 88 % of control

Cc1cc2c(cc1C)C(O)C(N1CCCCC1)CCC2 (centres undefined)
inactive: dose: 100.0 mg/kg/injection, schedule: Q04DX003 (ip), vehicle: saline with Tween-80 100 % of control | dose: 200.0 mg/kg/injection, schedule: Q04DX003 (ip), vehicle: saline with Tween-80 92 % of control | dose: 400.0 mg/kg/injection, schedule: Q04DX003 (ip), vehicle: saline with Tween-80 90 % of control

O=C(OCCc1ccccc1)Oc1ccccc1
inactive: dose: 100.0 mg/kg/injection, schedule: Q01DX009 (ip), vehicle: saline 115 % of control | dose: 200.0 mg/kg/injection, schedule: Q01DX009 (ip), vehicle: saline 110 % of control | dose: 400.0 mg/kg/injection, schedule: Q01DX009 (ip), vehicle: saline 103 % of control

CN(C)c1nc2ccccc2n1C1OC(CO)C(O)C1O (centres undefined)
inactive: dose: 100.0 mg/kg/injection, schedule: Q01DX001 (ip), vehicle: acetone 106 % of control | dose: 200.0 mg/kg/injection, schedule: Q01DX001 (ip), vehicle: acetone 103 % of control | dose: 400.0 mg/kg/injection, schedule: Q01DX001 (ip), vehicle: acetone 97 % of control

NC(=S)N/N=C\c1ccccn1
inactive: dose: 6.25 mg/kg/injection, schedule: Q01DX009 (ip), vehicle: saline with Tween-80 123 % of control | dose: 6.25 mg/kg/injection, schedule: Q04DX003 (ip), vehicle: saline with Tween-80 103 % of control | [3] 102 % of control | dose: 25.0 mg/kg/injection, schedule: Q04DX003 (ip), vehicle: saline with Tween-80 98 % of control
active: dose: 8.0 mg/kg/injection, schedule: Q01DX009 (ip), vehicle: saline with Tween-80 160 % of control | dose: 12.0 mg/kg/injection, schedule: Q01DX009 (ip), vehicle: saline with Tween-80 165 % of control

CC(C(=O)O)C1(O)CCCCC1 (centres undefined)
inactive: dose: 5.0 mg/kg/injection, schedule: Q04DX003 (ip), vehicle: saline with Tween-80 96 % of control | dose: 10.0 mg/kg/injection, schedule: Q04DX003 (ip), vehicle: saline with Tween-80 89 % of control | dose: 20.0 mg/kg/injection, schedule: Q04DX003 (ip), vehicle: saline with Tween-80 87 % of control
